# Measured values: patent US4801588A, “Tetracyclic indole derivatives for treating hypertension” (Farmitalia Carlo Erba S.p.A., priority 1986, dated 1989)
# Assays:
# mean blood pressure = assay: Antihypertensive activity: mean blood pressure (MBP) after oral administration in SHR rats, intraarterial measurement; assay type: in vivo, rat (SHR); conditions: single dose, limits P = 0.05, calculated from dose-response regression line; for ED25 and limits (dose lowering mean blood pressure of 25 mmHg): p.o.
# Procedure: Intrarterial measurements of mean blood pressure (MBP) were performed through catheters (PE 50, Clay Adams) implanted in the rat (SHR) right carotid artery under alothane anesthesia. Twenty four hours after surgery, the animals were placed in Ballman cages and the arterial cannula was connected via a pressure transducer to a Beckman blood pressure recorder for continuous monitoring of mean blood pressure.
# MBP was recorded before the oral administration (basal values) and 15-30-60-120-240 minutes till 24 hours after treatment. Groups of 7-8 rats were orally treated with a single dose of the test compound or vehicle, methocel 0.5% w/v (0.2 ml/100 g b.w.). The ED25 was calculated for each compound from the dose-response regression line.
# As reference standard drug, captopril was also tested.
# male mice = assay: Orientative toxicity after oral treatment in male mice, seven days observation; assay type: in vivo; conditions: p.o., observed for seven days, 10080 min
# Description: (§1) Three male mice for each group were orally treated with drugs at different dose levels for the determination of orientative toxicity.
# [1] = as above; assay type: in vivo; conditions: mouse, in vivo, po, observed for seven days
# Description: as §1
Compound,ED25 and limits (dose lowering mean blood pressure of 25 mmHg) (mean blood pressure),LD50 (male mice) [mg/kg],"ED (25 mmHg) (mean blood pressure; Rattus norvegicus, po, read-out: ED25 and limits (dose lowering mean blood pressure of 25 mmHg)) [mg/kg]",LD50 at 168 h [1] [mg/kg]
"1-[[5-(10→9)abeo-9,10-didehydro-6-methylergolin-8β-yl]methyl]- 2,4-(1H,3H)-pyrimidinedione-N6 -oxide [FCE 24778]",0.402 (0.297-0.511) mg.kg^-1,> 800,–,–
"C[C@H](CS)C(=O)N1CCC[C@H]1C(=O)O [Captopril, captopril, reference compound]",–,–,13.7,> 800
"1-[[5-(10→9)abeo-9,10-didehydro-6-methylergolin-8β-yl]methyl]- 2,4-(1H,3H)-pyrimidinedione [FCE 24379]",1.229 (0.661-1.845) mg.kg^-1,> 800,–,–
"C[N+]1([O-])C[C@H](CN2CC(=O)NC2=O)C2=Cc3cccc4[nH]cc(c34)C[C@H]21 (stereo partly drawn) [FCE 25068, 1-[[5(10→9)abeo-9,10-didehydro-6-methylergolin-8β-yl]methyl]-2,4-imidazolidinedione-N6-oxide]",4.272 (3.256-5.514) mg.kg^-1,> 800,–,–
"CN1C[C@H](CN2CC(=O)NC2=O)C2=Cc3cccc4[nH]cc(c34)C[C@H]21 [FCE 24378, 1-[[5(10→9)abeo-9,10-didehydro-6-methylergolin-8β-yl]methyl]-2,4-imidazolidinedione]",2.051 (1.180-2.971) mg.kg^-1,> 800,–,–
